# Experimental data published in ChEMBL document CHEMBL1145601, “The design and synthesis of diaryl ether second generation HIV-1 non-nucleoside reverse transcriptase inhibitors (NNRTIs) with enhanced potency versus key clinical mutations” (Bioorg Med Chem Lett, 2008).
# Legend:
# [1] = molecular target: Human immunodeficiency virus type 1 reverse transcriptase (Human immunodeficiency virus 1, UniProt Q72547, Y181C); assay: Inhibition of HIV1 reverse transcriptase Y181C mutant by SPA assay
# [2] = molecular target: Human immunodeficiency virus type 1 reverse transcriptase (Human immunodeficiency virus 1, UniProt Q72547, K103N); assay: Inhibition of HIV1 reverse transcriptase K103N mutant by SPA assay
# [3] = test system: Human immunodeficiency virus 1; assay: Antiviral activity against HIV1 in human MT4 cells in presence of 50% normal human serum; assay type: functional; settings: Human immunodeficiency virus 1, MT4; read-out: CIC95
# [4] = molecular target: Human immunodeficiency virus type 1 reverse transcriptase (Human immunodeficiency virus 1, UniProt Q72547); assay: Inhibition of HIV1 reverse transcriptase by SPA assay
# [5] = test system: Human immunodeficiency virus 1; assay: Antiviral activity against HIV1 in human MT4 cells in RPMI1640 media containing fetal bovine serum; assay type: functional; settings: Human immunodeficiency virus 1, MT4; read-out: CIC95
# [6] = Volume of distribution in Beagle dog at 0.25 mg/kg, iv; assay type: ADME, organism-based, Canis lupus familiaris; design: dose 0.25 mg/kg, route intravenous; settings: in vivo
# [7] = test system: Human immunodeficiency virus 1; assay: Antiviral activity against HIV1 with RT K103N mutation in human MT4 cells in presence of 40% normal human serum; assay type: functional, organism-based; settings: Human immunodeficiency virus 1, MT4
# [8] = test system: Human immunodeficiency virus 1; assay: Antiviral activity against HIV1 with RT K103N/P225H mutation in human MT4 cells in presence of 40% normal human serum; assay type: functional, organism-based; settings: Human immunodeficiency virus 1, MT4
# [9] = Clearance in Beagle dog at 0.25 mg/kg, iv; assay type: ADME, organism-based, Canis lupus familiaris; design: dose 0.25 mg/kg, route intravenous; settings: in vivo
# [10] = Half life in Sprague-Dawley rat at 2 mg/kg, iv; assay type: ADME, organism-based; design: dose 2 mg/kg, route intravenous; settings: in vivo
# [11] = Volume of distribution in rhesus monkey at 1 mg/kg, iv; assay type: ADME, organism-based, Macaca mulatta; design: dose 1 mg/kg, route intravenous; settings: in vivo
# [12] = test system: Human immunodeficiency virus 1; assay: Antiviral activity against HIV1 with RT K103N/Y181C mutation in human MT4 cells in presence of 40% normal human serum; assay type: functional, organism-based; settings: Human immunodeficiency virus 1, MT4
# [13] = test system: Human immunodeficiency virus 1; assay: Antiviral activity against HIV1 with RT Y181C mutation in human MT4 cells in presence of 40% normal human serum; assay type: functional, organism-based; settings: Human immunodeficiency virus 1, MT4
# [14] = AUC in Beagle dog at 0.25 mg/kg, iv; assay type: ADME, organism-based, Canis lupus familiaris; design: dose 0.25 mg/kg, route intravenous; settings: plasma
# [15] = test system: Human immunodeficiency virus 1; assay: Antiviral activity against HIV1 with RT G190A mutation in human MT4 cells in presence of 40% normal human serum; assay type: functional, organism-based; settings: Human immunodeficiency virus 1, MT4
# [16] = test system: Human immunodeficiency virus 1; assay: Antiviral activity against HIV1 with RT K103N mutation in human MT4 cells in presence of 10% fetal bovine serum; assay type: functional; settings: Human immunodeficiency virus 1, MT4; read-out: CIC95
# [17] = test system: Human immunodeficiency virus 1; assay: Antiviral activity against HIV1 in human MT4 cells in presence of 40% normal human serum; assay type: functional, organism-based; settings: Human immunodeficiency virus 1, MT4
# [18] = test system: Human immunodeficiency virus 1; assay: Antiviral activity against HIV1 with RT K103N/Y181C/G190A mutation in human MT4 cells in presence of 40% normal human serum; assay type: functional, organism-based; settings: Human immunodeficiency virus 1, MT4
# [19] = test system: Human immunodeficiency virus 1; assay: Antiviral activity against HIV1 with RT L100I mutation in human MT4 cells in presence of 40% normal human serum; assay type: functional, organism-based; settings: Human immunodeficiency virus 1, MT4
# [20] = test system: Human immunodeficiency virus 1; assay: Antiviral activity against HIV1 with RT Y181C mutation in human MT4 cells in presence of 10% fetal bovine serum; assay type: functional; settings: Human immunodeficiency virus 1, MT4; read-out: CIC95
# [21] = Volume of distribution in Sprague-Dawley rat at 10 mg/kg, po and 2 mg/kg, iv; assay type: ADME, organism-based; settings: in vivo
# [22] = Half life in Beagle dog at 0.25 mg/kg, iv; assay type: ADME, organism-based, Canis lupus familiaris; design: dose 0.25 mg/kg, route intravenous; settings: in vivo
# [23] = AUC in Sprague-Dawley rat at 10 mg/kg, po and 2 mg/kg, iv; assay type: ADME, organism-based; settings: plasma
# [24] = test system: Human immunodeficiency virus 1; assay: Antiviral activity against HIV1 with RT Y188L mutation in human MT4 cells in presence of 40% normal human serum; assay type: functional, organism-based; settings: Human immunodeficiency virus 1, MT4
# [25] = Clearance in rhesus monkey at 1 mg/kg, iv; assay type: ADME, organism-based, Macaca mulatta; design: dose 1 mg/kg, route intravenous; settings: in vivo
# [26] = test system: Human immunodeficiency virus 1; assay: Antiviral activity against HIV1 with RT K101E/G190A mutation in human MT4 cells in presence of 40% normal human serum; assay type: functional, organism-based; settings: Human immunodeficiency virus 1, MT4
# [27] = Clearance in Sprague-Dawley rat at 2 mg/kg, iv; assay type: ADME, organism-based; design: dose 2 mg/kg, route intravenous; settings: in vivo
# [28] = AUC in rhesus monkey at 1 mg/kg, iv; assay type: ADME, organism-based, Macaca mulatta; design: dose 1 mg/kg, route intravenous; settings: plasma
# [29] = Half life in rhesus monkey at 1 mg/kg, iv; assay type: ADME, organism-based, Macaca mulatta; design: dose 1 mg/kg, route intravenous; settings: in vivo
# [30] = test system: Human immunodeficiency virus 1; assay: Antiviral activity against HIV1 with RT Y181C/G190A mutation in human MT4 cells in presence of 40% normal human serum; assay type: functional, organism-based; settings: Human immunodeficiency virus 1, MT4
# [31] = Oral bioavailability in Sprague-Dawley rat at 10 mg/kg, po and 2 mg/kg, iv; assay type: ADME, organism-based; settings: in vivo
# [32] = test system: Human immunodeficiency virus 1; assay: Antiviral activity against HIV1 with RT G190S mutation in human MT4 cells in presence of 40% normal human serum; assay type: functional, organism-based; settings: Human immunodeficiency virus 1, MT4
# [33] = test system: Human immunodeficiency virus 1; assay: Antiviral activity against HIV1 with RT K103N/G190A mutation in human MT4 cells in presence of 40% normal human serum; assay type: functional, organism-based; settings: Human immunodeficiency virus 1, MT4
# [34] = test system: Human immunodeficiency virus 1; assay: Antiviral activity against HIV1 with RT K103N/V179E mutation in human MT4 cells in presence of 40% normal human serum; assay type: functional, organism-based; settings: Human immunodeficiency virus 1, MT4
compound,measurement,setting,value
N#Cc1cc(Cl)cc(Oc2cc(OCc3nc4cccc(Cl)c4o3)ccc2Cl)c1,IC50,[1],6.38 nM
same,IC50,[2],1.41 nM
same,IC95,[3],312 nM
same,IC50,[4],0.59 nM
same,IC95,[5],78 nM
N#Cc1cc(Cl)cc(Oc2cc(OCc3n[nH]c4ccccc34)ccc2Cl)c1,Vd,[6],1.2 L/kg
same,IC50,[7],7.9 nM
same,IC50,[1],2.62 nM
same,IC50,[8],29.3 nM
same,clearance,[9],28.9 mL/min/kg
same,half-life,[10],4.7 h
same,Vd,[11],7.1 L/kg
same,IC50,[12],141 nM
same,IC50,[13],13.8 nM
same,AUC,[14],0.4 µM·h
same,IC50,[15],9.4 nM
same,IC95,[16],33.4 nM
same,IC50,[17],4.7 nM
same,IC50,[18],171 nM
same,IC50,[19],2.6 nM
same,IC95,[20],102 nM
same,Vd,[21],2.9 L/kg
same,IC50,[2],1.12 nM
same,half-life,[22],1.5 h
same,AUC,[23],6.2 µM·h
same,IC95,[3],114 nM
same,IC50,[24],> 1000 nM
same,clearance,[25],24 mL/min/kg
same,IC50,[26],21 nM
same,clearance,[27],13.6 mL/min/kg
same,IC95,[5],22.6 nM
same,AUC,[28],1.7 µM·h
same,half-life,[29],8.1 h
same,IC50,[30],35.8 nM
same,bioavailability,[31],3.3%
same,IC50,[32],23.4 nM
same,IC50,[33],21.7 nM
same,IC50,[34],20.3 nM
N#Cc1cc(Cl)cc(Oc2cc(Cl)cc(OCC(=O)Nc3ccc(S(N)(=O)=O)cc3Cl)c2)c1,IC50,[1],2.66 nM
same,IC50,[2],3.48 nM
same,IC95,[3],125 nM
same,IC95,[5],16 nM
N#Cc1cc(Cl)cc(Oc2cc(OCc3nc4cccc(Cl)c4[nH]3)ccc2Cl)c1,IC50,[1],50 nM
same,IC50,[2],7.3 nM
same,IC95,[3],2780 nM
same,IC50,[4],3.2 nM
same,IC95,[5],103 nM
N#Cc1cc(Cl)cc(Oc2cc(OCc3nc4cccc(Cl)c4s3)ccc2Cl)c1,IC50,[1],5.15 nM
same,IC50,[2],5.98 nM
same,IC95,[3],1250 nM
same,IC50,[4],3.06 nM
same,IC95,[5],156 nM
Cc1cc(C)c(-n2nnnc2SCC(=O)Nc2ccc(S(N)(=O)=O)cc2Cl)c(C)c1,IC50,[1],34.5 nM
same,IC50,[2],10.4 nM
same,IC95,[3],62 nM
same,IC50,[4],4.05 nM
same,IC95,[5],16 nM
CS(=O)(=O)c1ccc2c(c1)CCN2C(=O)COc1ccc(Cl)c(Oc2cc(Cl)cc(C#N)c2)c1,IC50,[1],1.7 nM
same,IC95,[16],5.26 nM
same,IC95,[20],14.3 nM
same,IC50,[2],0.33 nM
same,IC95,[3],29.7 nM
same,IC50,[4],0.86 nM
same,IC95,[5],3.68 nM
N#Cc1cccc(Oc2cc(Cl)cc(OCC(=O)Nc3ccc(S(N)(=O)=O)cc3Cl)c2)c1,IC50,[1],1.2 nM
same,IC50,[2],14.4 nM
same,IC95,[3],160 nM
same,IC50,[4],0.96 nM
same,IC95,[5],8 nM
N#Cc1cc(Cl)cc(Oc2cc(OCc3nc4ccccc4s3)ccc2Cl)c1,IC50,[1],54.9 nM
same,IC50,[2],79.2 nM
same,IC95,[3],1250 nM
same,IC50,[4],19.3 nM
same,IC95,[5],312 nM
Cc1cc(S(N)(=O)=O)ccc1NC(=O)COc1ccc(Cl)cc1C(=O)c1cc(Cl)cc(C#N)c1,IC50,[1],2.48 nM
same,IC95,[16],6.98 nM
same,IC95,[20],3.28 nM
same,IC50,[2],3.16 nM
same,IC95,[3],30.5 nM
same,IC50,[4],2.16 nM
same,IC95,[5],2.65 nM
N#Cc1cc(Cl)cc(Oc2cc(OCC(=O)Nc3ccc(S(N)(=O)=O)cc3Cl)ccc2Cl)c1,IC50,[1],0.28 nM
same,IC95,[16],9.52 nM
same,IC95,[20],14.8 nM
same,IC50,[2],0.21 nM
same,IC95,[3],23.9 nM
same,IC50,[4],0.14 nM
same,IC95,[5],7.56 nM
CS(=O)(=O)c1ccc(NC(=O)COc2ccc(Cl)c(Oc3cc(Cl)cc(C#N)c3)c2)c(Cl)c1,IC50,[1],0.91 nM
same,IC50,[2],1.33 nM
same,IC95,[3],78 nM
same,IC50,[4],0.99 nM
same,IC95,[5],31 nM
NS(=O)(=O)c1ccc(NC(=O)COc2cccc(Oc3ccccc3)c2)c(Cl)c1,IC50,[1],722 nM
same,IC50,[2],192 nM
same,IC50,[4],51.7 nM
NS(=O)(=O)c1ccc(NC(=O)COc2cc(Cl)cc(Oc3ccccc3)c2)c(Cl)c1,IC50,[1],25 nM
same,IC50,[2],218 nM
same,IC50,[4],10.5 nM
